For 23 compounds, IC50 results are on record in patent US10273222B2 (CELGENE QUANTICEL RESEARCH, INC., priority 2013, dated 2019).

As usually defined, the IC50 is the concentration that gives 50% inhibition. A lower IC50 goes with greater potency in that assay.

Holding throughout (type): biochemical
One experiment has as its target JMJD2C (Homo sapiens (Human), UniProt Q9H3R0). Kind of experiment: JMJD2C in vitro enzyme inhibition assay (TR-FRET). (TR-FRET usually uses a lanthanide donor and a delayed reading to cut background.)
Another experiment deals with FBXL10 (Homo sapiens (Human), UniProt Q8NHM5). The experiment can be described thus: FBXL10 in vitro enzyme inhibition assay (AlphaScreen). The method in brief: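 AlphaScreen read-out of H3K36me1 product, detected with anti-H3K36me1 antibody plus streptavidin donor and Protein A acceptor beads (final 10 μg/ml) in 50 mM HEPES pH 7.3, 10 mM NaCl, 0.005% Brij35, 5 mM EDTA, 2 mg/ml BSA. Beads incubated 2 h to overnight at room temperature; IC50 derived from AlphaScreen signal.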
For orientation: In Alpha technology, singlet oxygen from a donor bead excites a nearby acceptor bead.

A further experiment deals with JMJD2A (Homo sapiens (Human), UniProt O75164). The experiment can be described thus: JMJD2A in vitro enzyme inhibition assay (TR-FRET).
A further experiment deals with Jarid1A (Homo sapiens (Human), UniProt P29375). The experiment can be described thus: Jarid1A in vitro enzyme inhibition assay (TR-FRET). The source says:
The enzymatic assay of Jarid1A activity is based upon Time Resolved-Fluorescence Resonance Energy Transfer (TR-FRET) detection.

A further experiment has as its target Jarid1B (Homo sapiens (Human), UniProt Q9UGL1). Kind of experiment: Jarid1B in vitro enzyme inhibition assay (TR-FRET).

Chain of Jarid1B (Q9UGL1 2-751): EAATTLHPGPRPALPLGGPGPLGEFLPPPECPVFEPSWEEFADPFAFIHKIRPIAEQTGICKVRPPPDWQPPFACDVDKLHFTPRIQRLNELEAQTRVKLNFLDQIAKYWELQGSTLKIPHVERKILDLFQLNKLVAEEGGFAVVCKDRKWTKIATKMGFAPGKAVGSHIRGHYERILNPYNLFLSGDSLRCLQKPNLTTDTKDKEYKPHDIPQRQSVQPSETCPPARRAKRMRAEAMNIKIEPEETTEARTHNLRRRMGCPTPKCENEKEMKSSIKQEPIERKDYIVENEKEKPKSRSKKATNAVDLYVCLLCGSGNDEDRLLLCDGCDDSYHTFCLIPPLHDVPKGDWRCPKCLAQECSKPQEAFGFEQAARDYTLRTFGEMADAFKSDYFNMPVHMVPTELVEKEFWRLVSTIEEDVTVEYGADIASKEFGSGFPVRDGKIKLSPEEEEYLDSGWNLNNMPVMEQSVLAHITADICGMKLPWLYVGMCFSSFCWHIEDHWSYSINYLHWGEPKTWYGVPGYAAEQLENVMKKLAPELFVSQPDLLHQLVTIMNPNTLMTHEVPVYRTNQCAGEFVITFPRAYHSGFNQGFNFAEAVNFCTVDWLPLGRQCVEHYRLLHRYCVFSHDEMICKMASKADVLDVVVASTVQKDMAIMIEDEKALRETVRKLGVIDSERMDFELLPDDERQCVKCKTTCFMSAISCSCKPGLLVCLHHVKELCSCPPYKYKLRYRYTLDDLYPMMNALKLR
Chain of FBXL10 (Q8NHM5 1-650): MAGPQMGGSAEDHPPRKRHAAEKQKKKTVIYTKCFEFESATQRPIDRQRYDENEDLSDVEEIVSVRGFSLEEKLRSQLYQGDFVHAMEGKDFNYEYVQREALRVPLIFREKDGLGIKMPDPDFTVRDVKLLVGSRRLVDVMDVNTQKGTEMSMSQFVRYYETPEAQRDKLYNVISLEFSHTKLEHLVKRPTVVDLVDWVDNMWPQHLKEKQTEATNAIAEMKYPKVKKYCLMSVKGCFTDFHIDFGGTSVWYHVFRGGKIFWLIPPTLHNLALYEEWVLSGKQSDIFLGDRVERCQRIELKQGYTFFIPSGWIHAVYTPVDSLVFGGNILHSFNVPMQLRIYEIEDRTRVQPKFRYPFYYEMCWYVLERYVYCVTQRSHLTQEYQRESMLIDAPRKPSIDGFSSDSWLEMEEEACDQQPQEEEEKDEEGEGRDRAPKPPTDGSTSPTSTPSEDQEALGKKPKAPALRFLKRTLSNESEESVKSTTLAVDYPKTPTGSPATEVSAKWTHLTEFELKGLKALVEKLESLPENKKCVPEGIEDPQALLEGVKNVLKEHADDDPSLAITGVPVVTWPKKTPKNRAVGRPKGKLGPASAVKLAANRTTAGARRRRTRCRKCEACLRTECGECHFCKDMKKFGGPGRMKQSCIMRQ
Chain of JMJD2A (O75164 1-350): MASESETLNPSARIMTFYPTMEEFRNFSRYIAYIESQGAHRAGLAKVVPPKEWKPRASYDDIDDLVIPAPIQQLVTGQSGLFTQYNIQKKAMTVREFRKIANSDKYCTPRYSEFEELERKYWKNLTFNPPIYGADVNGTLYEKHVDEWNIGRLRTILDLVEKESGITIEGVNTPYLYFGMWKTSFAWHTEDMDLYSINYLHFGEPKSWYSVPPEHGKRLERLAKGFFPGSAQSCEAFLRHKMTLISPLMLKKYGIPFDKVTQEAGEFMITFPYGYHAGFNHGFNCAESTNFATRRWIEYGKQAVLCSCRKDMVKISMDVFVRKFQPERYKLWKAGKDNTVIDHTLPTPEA
Chain of JMJD2C (Q9H3R0 2-372): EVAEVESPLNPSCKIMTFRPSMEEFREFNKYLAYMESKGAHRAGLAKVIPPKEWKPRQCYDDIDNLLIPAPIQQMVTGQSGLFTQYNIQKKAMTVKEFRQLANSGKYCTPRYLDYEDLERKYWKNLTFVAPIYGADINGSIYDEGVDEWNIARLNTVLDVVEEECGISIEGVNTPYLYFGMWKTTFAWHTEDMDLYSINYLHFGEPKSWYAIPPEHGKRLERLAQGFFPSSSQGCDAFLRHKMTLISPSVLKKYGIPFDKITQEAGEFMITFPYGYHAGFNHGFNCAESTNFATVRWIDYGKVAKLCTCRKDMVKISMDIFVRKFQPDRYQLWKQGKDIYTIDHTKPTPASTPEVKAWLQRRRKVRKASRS
Chain of Jarid1A (P29375 1-1090): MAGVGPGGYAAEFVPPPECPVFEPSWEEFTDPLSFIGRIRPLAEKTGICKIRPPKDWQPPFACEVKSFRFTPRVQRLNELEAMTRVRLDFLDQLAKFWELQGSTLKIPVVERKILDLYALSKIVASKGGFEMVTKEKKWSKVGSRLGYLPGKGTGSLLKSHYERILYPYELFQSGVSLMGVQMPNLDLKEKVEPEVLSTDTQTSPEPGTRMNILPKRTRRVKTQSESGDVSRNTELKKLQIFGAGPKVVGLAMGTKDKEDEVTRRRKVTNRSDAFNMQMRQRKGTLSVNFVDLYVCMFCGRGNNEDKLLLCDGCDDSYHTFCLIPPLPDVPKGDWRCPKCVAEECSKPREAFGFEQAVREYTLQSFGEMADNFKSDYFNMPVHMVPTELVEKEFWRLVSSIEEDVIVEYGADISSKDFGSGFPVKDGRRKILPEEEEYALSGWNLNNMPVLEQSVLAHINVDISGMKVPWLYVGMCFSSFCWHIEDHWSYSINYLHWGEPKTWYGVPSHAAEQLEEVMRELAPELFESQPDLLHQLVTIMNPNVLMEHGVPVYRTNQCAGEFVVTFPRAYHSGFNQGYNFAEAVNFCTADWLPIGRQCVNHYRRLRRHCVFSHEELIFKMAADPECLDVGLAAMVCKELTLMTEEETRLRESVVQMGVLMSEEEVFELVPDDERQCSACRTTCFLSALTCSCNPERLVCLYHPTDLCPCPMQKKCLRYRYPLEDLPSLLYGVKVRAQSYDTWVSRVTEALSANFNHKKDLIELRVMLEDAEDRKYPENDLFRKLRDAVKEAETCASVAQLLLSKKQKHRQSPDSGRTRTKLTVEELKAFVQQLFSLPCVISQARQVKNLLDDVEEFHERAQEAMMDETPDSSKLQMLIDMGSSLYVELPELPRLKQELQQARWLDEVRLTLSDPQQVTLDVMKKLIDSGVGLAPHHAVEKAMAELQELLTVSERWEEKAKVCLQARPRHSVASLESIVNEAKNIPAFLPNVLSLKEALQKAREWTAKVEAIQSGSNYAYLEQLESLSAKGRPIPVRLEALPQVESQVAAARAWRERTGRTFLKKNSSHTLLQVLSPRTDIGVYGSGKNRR
Protocol for JMJD2A: This assay determines the ability of a test compound to inhibit Jarid1A, Jarid1B, JMJD2C, and JMJD2A demethylase activity. […] Baculovirus expressed JMJD2A (GenBank Accession #NM_014663, AA 1-350) was purchased from BPS Bioscience (Cat#50123).
The ability of test compounds to inhibit the activity of JMJD2A was determined in 384-well plate format under the following reaction conditions: 2 nM JMJD2A, 300 nM H3K9me3-biotin labeled peptide (Anaspec cat #64360), 2 μM alpha-ketoglutaric acid in assay buffer of 50 mM HEPES, pH7.3, 0.005% Brij35, 0.5 mM TCEP, 0.2 mg/ml BSA, 50 μM sodium L-ascorbate, and 2 μM ammonium iron(II) sulfate. Reaction product was determined quantitatively by TR-FRET after the addition of detection reagent Phycolink Streptavidin-allophycocyanin (Prozyme) and Europium-anti-di-methylated histone H3 lysine 9 (H3K9me2) antibody (PerkinElmer) in the presence of 5 mM EDTA in LANCE detection buffer (PerkinElmer) at a final concentration of 50 nM and 1 nM, respectively.
The assay reaction was initiated by the following: 2 μl of the mixture of 900 nM H3K9me3-biotin labeled peptide and 6 μM alpha-ketoglutaric acid with 2 μl of 11-point serial diluted inhibitor in 3% DMSO were added to each well of plate, followed by the addition of 2 μl of 6 nM JMJD2A to initiate the reaction. The reaction mixture was incubated at room temperature for 30 minutes, and terminated by the addition of 6 μl of 5 mM EDTA in LANCE detection buffer containing 100 nM Phycolink Streptavidin-allophycocyanin and 2 nM Europium-anti-H3K9me2 antibody. Plates were read by EnVisionMultilabel Reader in TR-FRET mode (excitation at 320 nm, emission at 615 nm and 665 nm) after 1 hour incubation at room temperature. A ratio was calculated (665/615) for each well and fitted to determine inhibition constant (IC50).
Protocol for Jarid1B: This assay determines the ability of a test compound to inhibit Jarid1A, Jarid1B, JMJD2C, and JMJD2A demethylase activity.
The ability of test compounds to inhibit the activity of Jarid1B was determined in 384-well plate format under the following reaction conditions: 0.8 nM Jarid1B, 300 nM H3K4me3-biotin labeled peptide (Anaspec cat #64357), 2 μM alpha-ketoglutaric acid in assay buffer of 50 mM HEPES, pH7.3, 0.005% Brij35, 0.5 mM TCEP, 0.2 mg/ml BSA, 50 μM sodium L-ascorbate, and 2 μM ammonium iron(II) sulfate. Reaction product was determined quantitatively by TR-FRET after the addition of detection reagent Phycolink Streptavidin-allophycocyanin (Prozyme) and Europium-anti-mono- or di-methylated histone H3 lysine 4 (H3K4me1-2) antibody (PerkinElmer) in the presence of 5 mM EDTA in LANCE detection buffer (PerkinElmer) at a final concentration of 25 nM and 1 nM, respectively.
The assay reaction was initiated by the following: 2 μl of the mixture of 900 nM H3K4me3-biotin labeled peptide and 6 μM alpha-ketoglutaric acid with 2 μl of 11-point serial diluted inhibitor in 3% DMSO was added to each well of the plate, followed by the addition of 2 μl of 2.4 nM Jarid1B to initiate the reaction. The reaction mixture was incubated at room temperature for 30 minutes, and terminated by the addition of 6 μl of 5 mM EDTA in LANCE detection buffer containing 50 nM Phycolink Streptavidin-allophycocyanin and 2 nM Europium-anti-H3K4me1-2 antibody. Plates were read by EnVisionMultilabel Reader in TR-FRET mode (excitation at 320 nm, emission at 615 nm and 665 nm) after 1 hour incubation at room temperature. A ratio was calculated (665/615) for each well and fitted to determine inhibition constant (IC50).

As to `Cn1cnc(-c2cc(-c3nn[nH]n3)ccn2)c1-c1ccc(F)cc1OCC1CC1` [Example 150, 2-[5-[2-(cyclopropylmethoxy)-4-fluorophenyl]-1-methylimidazol-4-yl]-4-(2H-tetrazol-5-yl)pyridine], the half-maximal inhibitory concentration (IC50) on JMJD2C is 1000 to 10000 nM; against FBXL10 it was ≤ 100 nM; on JMJD2A it was > 10000 nM; against Jarid1A, 100 to 1000 nM; against Jarid1B it was ≤ 100 nM.
Regarding `Cn1cnc(-c2cc(C(=O)O)ccn2)c1-c1ccc(F)cc1OCC1CC1` [Example 120, 2-[5-[2-(cyclopropylmethoxy)-4-fluorophenyl]-1-methylimidazol-4-yl]pyridine-4-carboxylic acid], the IC50 against JMJD2C is 1000 to 10000 nM; against FBXL10, ≤ 100 nM; at JMJD2A, > 10000 nM; against Jarid1A it was 100 to 1000 nM; against Jarid1B, ≤ 100 nM.
For the compound `CC(C)C(c1ccccc1)n1cnc(-c2cc(-c3nn[nH]n3)ccn2)c1` (stereo not shown) [Example 145, 2-[1-(2-methyl-1-phenylpropyl)imidazol-4-yl]-4-(2H-tetrazol-5-yl)pyridine], the IC50 on JMJD2C was 1000 to 10000 nM; on FBXL10 it was ≤ 100 nM; against JMJD2A it was > 10000 nM; at Jarid1A it was 100 to 1000 nM; on Jarid1B, 100 to 1000 nM.
`O=C(O)c1ccnc(-c2cn(CCN3CCCc4cc(Cl)ccc43)cn2)c1` [Example 89, 2-[1-[2-(6-chloro-3,4-dihydro-2H-quinolin-1-yl)ethyl]imidazol-4-yl]pyridine-4-carboxylic acid]: the IC50 on JMJD2C was 100 to 1000 nM; against FBXL10, ≤ 100 nM; against JMJD2A it was 100 to 1000 nM; against Jarid1A, ≤ 100 nM; at Jarid1B, ≤ 100 nM.
With `CN(CCn1cnc(-c2cc(C(=O)O)ccn2)c1)Cc1ccc(F)cc1` [Example 38, 2-[1-[2-[(4-fluorophenyl)methyl-methylamino]ethyl]imidazol-4-yl]pyridine-4-carboxylic acid], the half-inhibitory concentration (IC50) against JMJD2C, against FBXL10, against JMJD2A, against Jarid1A and on Jarid1B was ≤ 100 nM throughout.
In the case of `CN(CCn1cnc(-c2cc(C(=O)O)ccn2)c1)Cc1ccc(C(F)(F)F)cc1` [Example 68, 2-[1-[2-[methyl-[[4-(trifluoromethyl)phenyl]methyl]amino]ethyl]imidazol-4-yl]pyridine-4-carboxylic acid], the 50% inhibitory concentration (IC50) at JMJD2C, against FBXL10, against JMJD2A, against Jarid1A and at Jarid1B was ≤ 100 nM throughout.
In the case of `CC(C)C(c1ccccc1)n1cnc(-c2cc(C(=O)O)ccn2)c1` (stereo not shown) [Example 108, 2-[1-(2-methyl-1-phenylpropyl)imidazol-4-yl]pyridine-4-carboxylic acid], the IC50 was 100 to 1000 nM against JMJD2C; ≤ 100 nM against FBXL10; 100 to 1000 nM on JMJD2A; ≤ 100 nM against Jarid1A; ≤ 100 nM against Jarid1B.
As to `CN(CCn1cnc(-c2cc(C(=O)O)ccn2)c1)c1ccc(Cl)cc1` [Example 87, 2-[1-[2-(4-chloro-N-methylanilino)ethyl]imidazol-4-yl]pyridine-4-carboxylic acid], the IC50 against JMJD2C was 100 to 1000 nM; against FBXL10, ≤ 100 nM; at JMJD2A, 100 to 1000 nM; against Jarid1A it was ≤ 100 nM; on Jarid1B, ≤ 100 nM.
Regarding `FC(F)(F)c1ccccc1CCn1cnc(-c2cc(-c3nn[nH]n3)ccn2)c1` [Example 140, 4-(2H-tetrazol-5-yl)-2-[1-[2-[2-(trifluoromethyl)phenyl]ethyl]imidazol-4-yl]pyridine], the IC50 on JMJD2C is 1000 to 10000 nM; against FBXL10 it was ≤ 100 nM; against JMJD2A, > 10000 nM; at Jarid1A it was 100 to 1000 nM; against Jarid1B it was ≤ 100 nM.
For the compound `Clc1ccccc1CCn1cnc(-c2cc(-c3nn[nH]n3)ccn2)c1` [Example 141, 2-[1-[2-(2-chlorophenyl)ethyl]imidazol-4-yl]-4-(2H-tetrazol-5-yl)pyridine], the IC50 on JMJD2C was 1000 to 10000 nM; at FBXL10, ≤ 100 nM; at JMJD2A, > 10000 nM; at Jarid1A, 100 to 1000 nM; at Jarid1B, 100 to 1000 nM.
Turning to `CCC(c1ccccc1)n1cnc(-c2cc(C(=O)O)ccn2)c1` (stereo not shown) [Example 107, 2-[1-(1-phenylpropyl)imidazol-4-yl]pyridine-4-carboxylic acid], the IC50 is 100 to 1000 nM against JMJD2C; ≤ 100 nM against FBXL10; ≤ 100 nM against JMJD2A; ≤ 100 nM on Jarid1A; ≤ 100 nM against Jarid1B.
As for `Cc1ccc(CN(C)CCn2cnc(-c3cc(C(=O)O)ccn3)c2)cc1` [Example 67, 2-[1-[2-[methyl-[(4-methylphenyl)methyl]amino]ethyl]imidazol-4-yl]pyridine-4-carboxylic acid], the IC50 against JMJD2C, at FBXL10, against JMJD2A, at Jarid1A and against Jarid1B was ≤ 100 nM each time.
Regarding `O=C(O)c1ccnc(-c2cn(CC3CCCc4ccccc43)cn2)c1` (stereo not shown) [Example 116, 2-[1-(1,2,3,4-tetrahydronaphthalen-1-ylmethyl)imidazol-4-yl]pyridine-4-carboxylic acid], the IC50 against JMJD2C is 100 to 1000 nM; against FBXL10, ≤ 100 nM; against JMJD2A, ≤ 100 nM; at Jarid1A, ≤ 100 nM; at Jarid1B, ≤ 100 nM.
Turning to `CN1CCC(Cn2cnc(-c3cc(C(=O)O)ccn3)c2)CC1` [Example 50, 2-{1-[(1-methylpiperidin-4-yl)methyl]-1H-imidazol-4-yl}pyridine-4-carboxylic acid], the IC50 against JMJD2C is ≤ 100 nM; on FBXL10, 1000 to 10000 nM; against JMJD2A, ≤ 100 nM; against Jarid1A, ≤ 100 nM; against Jarid1B it was ≤ 100 nM.
As for `CCC(c1ccccc1)n1cnc(-c2cc(-c3nn[nH]n3)ccn2)c1` (stereo not shown) [Example 144, 2-[1-(1-phenylpropyl)imidazol-4-yl]-4-(2H-tetrazol-5-yl)pyridine], the 50% inhibitory concentration (IC50) at JMJD2C is 1000 to 10000 nM; on FBXL10, ≤ 100 nM; against JMJD2A, > 10000 nM; against Jarid1A it was 100 to 1000 nM; at Jarid1B, ≤ 100 nM.
On to `c1cc(-c2nn[nH]n2)cc(-c2cn(CCN3CCCC3)cn2)n1` [Example 63, 2-{1-[2-(pyrrolidin-1-yl)ethyl]-1H-imidazol-4-yl}-4-(2H-tetrazol-5-yl)pyridine], for which the IC50 against JMJD2C is 100 to 1000 nM; against FBXL10, 100 to 1000 nM; against JMJD2A, 1000 to 10000 nM; at Jarid1A, ≤ 100 nM; at Jarid1B, ≤ 100 nM.
With `CN(CCn1cnc(-c2cc(C(=O)O)ccn2)c1)CC1CC1` [Example 59, 2-(1-{2-[(cyclopropylmethyl)(methyl)amino]ethyl}-1H-imidazol-4-yl)pyridine-4-carboxylic acid], the IC50 against JMJD2C is ≤ 100 nM; against FBXL10 it was 100 to 1000 nM; at JMJD2A, ≤ 100 nM; against Jarid1A, ≤ 100 nM; against Jarid1B, ≤ 100 nM.
In the case of `O=C(O)c1ccnc(-c2cn(C3CCc4c(F)cccc43)cn2)c1` (stereo not shown) [Example 110, 2-[1-(4-fluoro-2,3-dihydro-1H-inden-1-yl)imidazol-4-yl]pyridine-4-carboxylic acid], the IC50 against JMJD2C is 100 to 1000 nM; against FBXL10 it was ≤ 100 nM; on JMJD2A, 100 to 1000 nM; on Jarid1A, ≤ 100 nM; on Jarid1B, ≤ 100 nM.
Regarding `O=C(O)c1ccnc(-c2cn(Cc3cccc(-c4ccccc4)c3)cn2)c1` [Example 111, 2-[1-[(3-phenylphenyl)methyl]imidazol-4-yl]pyridine-4-carboxylic acid], the IC50 on JMJD2C was 1000 to 10000 nM; on FBXL10, ≤ 100 nM; at JMJD2A, 1000 to 10000 nM; on Jarid1A, ≤ 100 nM; against Jarid1B, ≤ 100 nM.
As for `FC(F)(F)c1cccc(Cn2cnc(-c3cc(-c4nn[nH]n4)ccn3)c2)c1Cl` [Example 154, 2-[1-[[2-chloro-3-(trifluoromethyl)phenyl]methyl]imidazol-4-yl]-4-(2H-tetrazol-5-yl)pyridine], the concentration for half-maximal inhibition (IC50) against JMJD2C was 1000 to 10000 nM; at FBXL10, ≤ 100 nM; at JMJD2A it was > 10000 nM; against Jarid1A it was 100 to 1000 nM; at Jarid1B, ≤ 100 nM.
`Clc1ccccc1Cn1cnc(-c2cc(-c3nn[nH]n3)ccn2)c1` [Example 129, 2-[1-[(2-chlorophenyl)methyl]imidazol-4-yl]-4-(2H-tetrazol-5-yl)pyridine]: the IC50 is 1000 to 10000 nM against JMJD2C; ≤ 100 nM against FBXL10; > 10000 nM against JMJD2A; 100 to 1000 nM against Jarid1A; ≤ 100 nM against Jarid1B.
For `O=C(O)c1ccnc(-c2cn(CCN3CCc4cc(F)ccc43)cn2)c1` [Example 91, 2-[1-[2-(5-fluoro-2,3-dihydroindol-1-yl)ethyl]imidazol-4-yl]pyridine-4-carboxylic acid], the IC50 against JMJD2C was 100 to 1000 nM; against FBXL10, 100 to 1000 nM; on JMJD2A, 100 to 1000 nM; against Jarid1A, ≤ 100 nM; at Jarid1B it was ≤ 100 nM.
For `O=C(O)c1ccnc(-c2cn(C3CCc4ccc(F)cc43)cn2)c1` (stereo not shown) [Example 109, 2-[1-(6-fluoro-2,3-dihydro-1H-inden-1-yl)imidazol-4-yl]pyridine-4-carboxylic acid], the concentration for half-maximal inhibition (IC50) was 1000 to 10000 nM at JMJD2C; ≤ 100 nM on FBXL10; 100 to 1000 nM against JMJD2A; ≤ 100 nM against Jarid1A; ≤ 100 nM on Jarid1B.
